This is an account of results in patent US12577217B2, “15-PGDH inhibitor” (KYORIN Pharmaceutical Co., Ltd., priority 2019, dated 2026).

One assay addresses T1, recombinant human 15-PGDH (Homo sapiens, UniProt P15428).
T1 construct: purchased R&D Systems
T1 sequence (P15428 1-266): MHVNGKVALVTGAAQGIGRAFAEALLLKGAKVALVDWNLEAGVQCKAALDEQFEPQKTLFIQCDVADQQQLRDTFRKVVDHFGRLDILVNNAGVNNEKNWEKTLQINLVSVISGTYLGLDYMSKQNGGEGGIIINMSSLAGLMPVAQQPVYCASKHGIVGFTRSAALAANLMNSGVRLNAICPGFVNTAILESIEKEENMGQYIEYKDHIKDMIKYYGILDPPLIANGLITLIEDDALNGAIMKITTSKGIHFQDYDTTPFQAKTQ
Description: 15-PGDH enzyme inhibition test. The class given is biochemical. To be noted: 4 nM recombinant human 15-PGDH, 30 μM PGE2, 1 mM NAD+, 60 minutes after starting the reaction; read-out: IC50 Value. The procedure, abridged:
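4 nM recombinant human enzyme pre-incubated with compound 12 min at room temperature in 50 mM Tris-HCl pH 8.0 with 0.01% Tween 20 and 0.01% bovine gamma globulin. Reaction started with 30 μM PGE2 and 1 mM NAD+, read after 60 min by fluorescence (ex 340/em 440 nm). IC50 from concentration-response curve.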
In general, IC50 refers to the concentration at which inhibition is half-maximal. In the case of `Cn1ncc2cc(N3CCOc4cc(C(=O)N5CCCCC5)cnc43)ccc2c1=O` [Example 1-218], the IC50 is < 0.01 µM.

As to `Cn1nc2cc(N3CCOc4cc(C(=O)N5CCCC(C)(C)C5)cnc43)ccn2c1=O` [Example 8-110], the IC50 is < 0.01 µM.

In the case of `Cn1nc2cc(N3CCOc4cc(C(=O)N5CCCCCCC5)sc43)ccn2c1=O` [Example 8-224], the IC50 lay in the range of 0.01 to 0.1 µM.

For `N#Cc1ccc(N2CCOc3cc(C(=O)N4CCC(F)(F)CC4)ccc32)cc1` [Example 1-17], the IC50 was < 0.01 µM.

Take `CCn1nc2cc(N3CCCc4cc(C(=O)N5CCC[C@@H](F)C5)cnc43)ccn2c1=O` [Example 8-162]: the IC50 is < 0.01 µM.

Regarding `CNC(=O)c1cc2ccc(N3CCOc4cc(C(=O)N5CCCCC5)cnc43)cc2n1C` [Example 6-11], the IC50 lay in the range of 0.01 to 0.1 µM.

Take `Cn1nc2cc(N3CCOc4cc(C(=O)NCCCO)cnc43)ccn2c1=O` [Example 8-174]: the IC50 was 0.01 to 0.1 µM.

In the case of `COC(=O)c1ccc2nc(N3CCOc4cc(C(=O)N5CCCCC5)cnc43)cn2c1` [Example 11-5], the IC50 was > 0.1 µM.

`Cn1ncc2cc(N3CCCc4cc(C(=O)N5CCC(F)(F)CC5)cnc43)ccc2c1=O` [Example 1-189]: the IC50 is < 0.01 µM.

Consider `CN1Cc2cc(N3CCOc4cc(C(=O)N5CCC(F)(F)CC5)cnc43)ncc2C1=O` [Example 1-46], for which the IC50 lay within 0.01 to 0.1 µM.

For the compound `Cn1nnnc1-c1ccc(N2CCOc3cc(C(=O)N4CCCCC4)cnc32)cc1` [Example 1-251], the 50% inhibitory concentration (IC50) is < 0.01 µM.

Turning to `COC(=O)c1cc2sc(N3CCOc4cc(C(=O)N5CCCCC5)cnc43)cc2s1` [Example 1-24], the IC50 is < 0.01 µM.

For the compound `COCCN1Cc2cc(N3CCCc4cc(C(=O)N5CCCCC5)cnc43)ncc2C1=O` [Example 1-72], the IC50 fell in the range of 0.01 to 0.1 µM.

Turning to `O=C(c1cnc2c(c1)OCCN2c1ccc2cnccc2c1)N1CCCCC1` [Example 1-259], the IC50 is < 0.01 µM.

On to `O=C(O)c1ccc(N2CCOc3cc(C(=O)N4CCCCC4)cnc32)cc1Cl` [Example 4-17], for which the IC50 is < 0.01 µM.

Take `COCCNC(=O)c1cnc2c(c1)OCCN2c1ccn2c(=O)n(C)nc2c1` [Example 8-105]: the IC50 was < 0.01 µM.

Regarding `Cn1nc2cc(N3CCOc4cc([S+]([O-])C5CCCCC5)cnc43)ccn2c1=O` (stereo not shown) [Example 7-5], the IC50 was < 0.01 µM.

Take `O=C(O)c1ccc(N2CCOc3cc(C(=O)N4CCCCC4)ccc32)nc1` [Example 2-21]: the IC50 is < 0.01 µM.

Turning to `Cn1nc2cc(N3CCCc4cc(C(=O)N5CCC(F)CC5)cnc43)ccn2c1=O` [Example 8-140], the IC50 was < 0.01 µM.

In the case of `CN1Cc2cc(N3CCOc4cc(C(=O)N5CCCC5)cnc43)ccc2C1=O` [Example 8-185], the 50% inhibitory concentration (IC50) was < 0.01 µM.

In the case of `CCN1Cc2cc(N3CCCc4cc(C(=O)N5CCCC(F)(F)C5)cnc43)ccc2C1=O` [Example 8-85], the IC50 is < 0.01 µM.

For the compound `CCN1Cc2cc(N3CCCc4cc(C(=O)N5CCC[C@@H](CF)C5)cnc43)ccc2C1=O` [Example 8-91], the IC50 is < 0.01 µM.

With `C[C@@H]1CCCCN1C(=O)c1cnc2c(c1)OCCN2c1ccn2c(=O)n(C)nc2c1` [Example 8-21], the IC50 is < 0.01 µM.

On to `O=C(O)c1ccc(N2CC[S+]([O-])c3cc(C(=O)N4CCCCC4)ccc32)cc1` (stereo not shown) [Example 2-16], for which the IC50 is 0.01 to 0.1 µM.

As to `O=C(c1cnc2c(c1)OCCN2c1ccc(F)c(F)c1)N1CCCCC1` [Example 1-239], the IC50 was in the range of 0.01 to 0.1 µM.

Turning to `Cn1nc2cc(N3CCCOc4cc(C(=O)N5CCC[C@@H](F)C5)cnc43)ccn2c1=O` [Example 8-62], the IC50 is < 0.01 µM.

Regarding `O=C(O)c1ccccc1N1CCOc2cc(C(=O)N3CCCCC3)cnc21` [Example 2-36], the IC50 was > 0.1 µM.

As for `CN(CCCCO)C(=O)c1cnc2c(c1)OCCN2c1ccn2c(=O)n(C)nc2c1` [Example 8-177], the IC50 was > 0.1 µM.

As to `O=C(O)Cn1nc2cc(N3CCOc4cc(C(=O)N5CCCCC5)cnc43)ccn2c1=O` [Example 2-23], the IC50 is < 0.01 µM.

For the compound `O=C(O)c1ccc(N2CCc3cc(C(=O)N4CCCCC4)ccc32)cc1` [Example 2-30], the IC50 is < 0.01 µM.

As for `CCOCCn1nc2cc(N3CCOc4cc(C(=O)N5CCCCC5)cnc43)ccn2c1=O` [Example 1-269], the IC50 was < 0.01 µM.

For `CN1Cc2cc(N3CCCc4cc(C(=O)N5CCC(F)(F)CC5)cnc43)cnc2C1=O` [Example 1-84], the IC50 is < 0.01 µM.

`CCOCn1nc2cc(N3CCCc4cc(C(=O)N5CCC(F)(F)CC5)cnc43)ccn2c1=O` [Example 1-77]: the IC50 is < 0.01 µM.

Take `C[C@@H]1CCCN(C(=O)c2cnc3c(c2)CCCN3c2ccn3c(=O)n(C)nc3c2)C1` [Example 8-134]: the IC50 was < 0.01 µM.

For the compound `Cn1nc2cc(N3CCc4cc(C(=O)N5CCCCC5)ccc43)ccn2c1=O` [Example 1-141], the 50% inhibitory concentration (IC50) is < 0.01 µM.

On to `COCn1nc2cc(N3CCCc4cc(C(=O)N5CC[C@@H](C)C5)cnc43)ccn2c1=O` [Example 8-121], for which the IC50 was < 0.01 µM.

`Cn1nc2cc(N3CCOc4cc(C(=O)N5Cc6ccccc6C5)cnc43)ccn2c1=O` [Example 8-103]: the IC50 is < 0.01 µM.

For `CC(=O)N1CCN(C(=O)c2cnc3c(c2)CCCN3c2ccn3c(=O)n(C)nc3c2)CC1` [Example 8-128], the half-inhibitory concentration (IC50) is > 0.1 µM.

As for `CN1Cc2cc(N3CCOc4cc(C(=O)N5CCC(F)CC5)cnc43)ccc2C1=O` [Example 8-202], the IC50 was < 0.01 µM.

For the compound `CCN1Cc2cc(N3CCCc4cc(C(=O)N5CCCC5)cnc43)ccc2C1=O` [Example 8-69], the IC50 was < 0.01 µM.

As to `CC(C)(N)c1ccc(N2CCOc3cc(C(=O)N4CCCCC4)cnc32)cc1` [Example 1-246], the IC50 was > 0.1 µM.

With `CCN1Cc2cc(N3CCCc4cc(C(=O)N5CCCCCCC5)cnc43)ccc2C1=O` [Example 8-71], the IC50 was < 0.01 µM.

Consider `Cn1nc2cc(N3CCOc4cc(C(=O)N5CCC(F)(F)C5)cnc43)ccn2c1=O` [Example 8-25], for which the IC50 was < 0.01 µM.

For `CC1CCN(C(=O)c2cnc3c(c2)CCCN3c2ccn3c(=O)n(C)nc3c2)CC1` [Example 8-136], the IC50 is < 0.01 µM.

Regarding `C[C@@H]1COc2cc(C(=O)N3CCCCC3)ccc2N(c2ccn3c(=O)n(C)nc3c2)C1` [Example 1-96], the IC50 is < 0.01 µM.

Turning to `COCCN1CCN(c2ccn3c(=O)n(C)nc3c2)c2ncc(C(=O)N3CCCCC3)cc21` [Example 29-2], the half-inhibitory concentration (IC50) was < 0.01 µM.

As to `CN1Cc2cc(N3CCOc4cc(C(=O)N5Cc6ccccc6C5)cnc43)ccc2C1=O` [Example 8-193], the IC50 is < 0.01 µM.

Consider `CCn1nc2cc(N3CCCc4cc(C(=O)N5Cc6ccccc6C5)cnc43)ccn2c1=O` [Example 8-156], for which the IC50 is < 0.01 µM.

Take `O=C(c1cnc2c(c1)CCCN2c1ccn2c(=O)[nH]nc2c1)N1CCCCC1` [Example 1-171]: the IC50 was < 0.01 µM.

For `COc1c(C(=O)N2CCCCC2)ccc2c1OCCN2c1ccn2c(=O)n(C)nc2c1` [Example 1-100], the IC50 is < 0.01 µM.

For the compound `CCn1nc2cc(N3CCCc4cc(C(=O)N5CCC[C@@H](C(F)(F)F)C5)cnc43)ccn2c1=O` [Example 8-170], the IC50 is 0.01 to 0.1 µM.

For the compound `O=C(O)c1ccccc1N1CCc2cc(C(=O)N3CCCCC3)ccc21` [Example 2-28], the IC50 was > 0.1 µM.

In the case of `Cn1nc2cc(N3CCOc4cc(C(=O)N5CCC(C(F)(F)F)CC5)cnc43)ccn2c1=O` [Example 8-101], the IC50 was < 0.01 µM.

Regarding `CCN1Cc2cc(N3CCCc4cc(C(=O)N5CCOCC5)cnc43)ccc2C1=O` [Example 8-72], the IC50 was < 0.01 µM.

For `O=C(c1cnc2c(c1)OCCN2c1ccn2c(=O)n(-c3ccccc3)nc2c1)N1CCCCC1` [Example 21-1, 2-Phenyl-7-(7-(piperidine-1-carbonyl)-2,3-dihydro-4H-pyrido[3,2-b] [1,4]oxazin-4-yl)-[1,2,4]triazolo[4,3-a]pyridin-3 (2H)-one], the IC50 was < 0.01 µM.

Take `CCOCn1nc2cc(N3CCCc4cc(C(=O)N5CCCCC5)cnc43)ccn2c1=O` [Example 1-57]: the IC50 is < 0.01 µM.

For `CO[C@@H]1CCCN(C(=O)c2cnc3c(c2)OCCN3c2ccn3c(=O)n(C)nc3c2)C1` [Example 18-1, (R)-7-(7-(3-Methoxypiperidine-1-carbonyl)-2,3-dihydro-4H-pyrido[3,2-b] [1,4]oxazin-4-yl)-2-methyl-[1,2,4]triazolo[4,3-a]pyridin-3(2H)-one], the IC50 was < 0.01 µM.

As to `CN1CCN(c2ccn3c(=O)n(C)nc3c2)c2ncc(C(=O)N3CCCCC3)cc21` [Example 29-1, 2-Methyl-7-(l-methyl-7-(piperidine-1-carbonyl)-2,3-dihydropyrido[2,3-b]pyrazin-4(1H)-yl)-[1,2,4]triazolo[4,3-a]pyridin-3(2H)-one], the IC50 is < 0.01 µM.

Take `CCn1nc2cc(N3CCCc4cc(C(=O)N5CCN(C(C)=O)CC5)cnc43)ccn2c1=O` [Example 8-153]: the concentration for half-maximal inhibition (IC50) was > 0.1 µM.

In the case of `C[C@H]1COc2cc(C(=O)N3CCCCC3)ccc2N(c2ccn3c(=O)n(C)nc3c2)C1` [Example 1-95], the IC50 was < 0.01 µM.

For `CCn1nc2cc(N3CCCc4cc(C(=O)N5CCC(F)CC5)cnc43)ccn2c1=O` [Example 8-165], the IC50 is < 0.01 µM.

Turning to `C[C@@H]1CCCCN1C(=O)c1cnc2c(c1)CCCN2c1ccn2c(=O)n(C)nc2c1` [Example 8-132], the IC50 was < 0.01 µM.

`CCn1nc2cc(N3CCCc4cc(C(=O)N5CCOCC5)cnc43)ccn2c1=O` [Example 8-151]: the 50% inhibitory concentration (IC50) was in the range of 0.01 to 0.1 µM.

The assay is the same for the next values; noted with them: IC50 Value, 4 nM recombinant human 15-PGDH, 30 μM PGE2, 1 mM NAD+, 60 minutes after starting the reaction.
Consider `Cn1nc2cc(N3CCOc4cc(C(=O)N5CCC(=O)CC5)cnc43)ccn2c1=O` [Example 8-112], for which the IC50 lay within 0.01 to 0.1 µM.
